Experimental data as given in ChEMBL document CHEMBL2040789, “Optimization of the Central Core of Indolinone-Acetic Acid-Based CRTH2 (DP2) Receptor Antagonists” (ACS Med Chem Lett, 2011).
pIC50, pKi: −log10 of the molar value. In brackets after ≈: the same amount, converted by molar mass. Blank lines part the entries; values can stand above or below the compound they belong to.

Tests used:
[1] = biological target: T1, Prostaglandin D2 receptor 2 (Homo sapiens, UniProt Q9Y5Y4); test: Displacement of [3H]PGD2 from human CRTH2 receptor expressed in CHO cells after 90 mins by scintillation proximity assay; assay type: cell-based
T1 sequence (Q9Y5Y4 whole entry): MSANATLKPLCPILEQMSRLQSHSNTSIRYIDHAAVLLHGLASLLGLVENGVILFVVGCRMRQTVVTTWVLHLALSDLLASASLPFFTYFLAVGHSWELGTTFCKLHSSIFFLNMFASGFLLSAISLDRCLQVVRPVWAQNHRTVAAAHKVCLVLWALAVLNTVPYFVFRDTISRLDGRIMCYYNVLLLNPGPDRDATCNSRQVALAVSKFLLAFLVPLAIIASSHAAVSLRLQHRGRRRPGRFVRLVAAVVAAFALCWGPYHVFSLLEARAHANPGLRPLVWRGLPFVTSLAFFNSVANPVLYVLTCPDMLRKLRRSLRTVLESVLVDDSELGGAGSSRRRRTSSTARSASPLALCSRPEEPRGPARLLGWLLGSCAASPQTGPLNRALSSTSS

[2] = Fraction unbound in human plasma; assay type: ADME, cell-free
[3] = Fraction unbound in rat plasma; assay type: ADME, cell-free
[4] = Fraction unbound in mouse plasma; assay type: ADME, cell-free
[5] = Apparent permeability of the compound in human Caco2 cells; assay type: ADME, cell-based; settings: Caco-2
[6] = Clearance in Sprague-Dawley rat at 1 mg/kg, iv and 5 mg/kg, po; assay type: ADME, organism-based; settings: in vivo
Liver microsomes = test: Clearance in human liver microsomes; assay type: ADME, Microsome
Hepatocyte [7] = test: Clearance in human hepatocytes; assay type: ADME, cell-based
[8] = Oral bioavailability in Sprague-Dawley rat at 5 mg/kg; assay type: ADME, organism-based; settings: in vivo
[9] = Oral bioavailability in C57BL/6 mouse at 5 mg/kg; assay type: ADME, organism-based; settings: in vivo
[10] = Oral bioavailability in guinea pig; assay type: ADME, organism-based, Cavia porcellus; settings: in vivo
[11] = Oral bioavailability in monkey; assay type: ADME, organism-based, Macaca mulatta; settings: rhesus monkey, in vivo
[12] = Oral bioavailability in dog; assay type: ADME, organism-based, Canis lupus familiaris; settings: in vivo
[13] = Solubility of the compound in simulated gastric fluid; assay type: physicochemical
[14] = Bioavailability in Sprague-Dawley rat administered by portal vein; assay type: ADME, organism-based; settings: in vivo
[15] = Drug degradation at pH 8 after 24 hrs; assay type: physicochemical; settings: buffer, read-out: Drug degradation
[16] = Drug degradation at pH 9 after 24 hrs; assay type: physicochemical; settings: buffer, read-out: Drug degradation
[17] = Drug degradation in human plasma after 24 hrs; assay type: ADME, cell-free; settings: read-out: Drug degradation
[18] = Bioavailability in Sprague-Dawley rat after intraduodenal administration; assay type: ADME, organism-based; settings: in vivo
[19] = Clearance in C57BL/6 mouse at 1 mg/kg, iv and 5 mg/kg, po; assay type: ADME, organism-based; settings: in vivo
[20] = AUC in C57BL/6 mouse at 5 mg/kg, po; assay type: ADME, organism-based; parameters: dose 5 mg/kg, route oral; settings: plasma
[21] = Solubility of the compound in fasted state simulated intestinal fluid
[22] = Intrinsic clearance in rat liver microsomes; assay type: ADME, Microsome; settings: read-out: CLH
Mus musculus = test: Antiinflammatory activity in ovalbumin-sensitised Balb/c mouse assessed as reduction in ovalbumin-induced eosinophil count in bronchoalveolar lavage fluid at 30 mg/kg, po administered 1 hr before and 7 hrs after ovalbumin challenge measured after 8 hrs by haemocytometeric analysis; assay type: functional; settings: Lung
[23] = biological target: T2, Prostaglandin E2 receptor EP1 subtype (Homo sapiens) (UniProt P34995); test: Inhibition of EP1 at 10 uM
T2 sequence (whole entry): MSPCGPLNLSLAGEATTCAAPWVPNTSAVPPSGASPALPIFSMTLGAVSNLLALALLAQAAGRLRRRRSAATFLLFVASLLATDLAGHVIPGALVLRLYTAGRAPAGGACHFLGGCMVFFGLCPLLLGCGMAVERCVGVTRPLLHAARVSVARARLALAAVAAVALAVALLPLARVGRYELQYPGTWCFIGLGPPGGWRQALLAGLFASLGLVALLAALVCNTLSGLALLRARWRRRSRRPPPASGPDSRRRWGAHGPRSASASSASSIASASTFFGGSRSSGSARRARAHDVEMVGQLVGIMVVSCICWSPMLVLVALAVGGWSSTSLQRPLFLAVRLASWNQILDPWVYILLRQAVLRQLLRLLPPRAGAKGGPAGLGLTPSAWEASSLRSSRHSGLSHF

[24] = biological target: Prostaglandin E2 receptor EP2 subtype (Homo sapiens) (UniProt P43116); test: Inhibition of EP2 at 10 uM
[25] = biological target: T3, Prostaglandin D2 receptor (Homo sapiens) (UniProt Q13258); test: Inhibition of DP1 expressed in human HEK cells at 20 uM; assay type: cell-based; settings: HEK293
T3 sequence (whole entry): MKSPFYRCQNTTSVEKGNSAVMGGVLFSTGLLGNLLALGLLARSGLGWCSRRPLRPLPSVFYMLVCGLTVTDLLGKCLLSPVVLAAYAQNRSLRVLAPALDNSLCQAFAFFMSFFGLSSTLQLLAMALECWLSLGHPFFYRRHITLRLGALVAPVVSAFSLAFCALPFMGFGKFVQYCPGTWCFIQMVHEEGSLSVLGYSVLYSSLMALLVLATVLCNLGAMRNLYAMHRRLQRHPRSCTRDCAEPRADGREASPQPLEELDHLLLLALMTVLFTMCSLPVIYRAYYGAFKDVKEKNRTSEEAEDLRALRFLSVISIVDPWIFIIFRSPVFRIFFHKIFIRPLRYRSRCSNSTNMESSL

[26] = biological target: T3, Prostaglandin D2 receptor (Homo sapiens); test: Antagonist activity at DP1 receptor expressed in HEK cells assessed as inhibition of PGD2-induced cAMP production at 20 uM; assay type: functional, cell-based; settings: HEK293
[27] = biological target: Voltage-gated inwardly rectifying potassium channel KCNH2 (Homo sapiens, UniProt Q12809); test: Inhibition of human Erg
Hepatocyte [28] = test: Cytotoxicity against primary rat hepatocytes up to 750 uM; assay type: cell-based
HepG2 = test: Cytotoxicity against human HepG2 cells up to 750 uM; assay type: cell-based
Cytochrome P450 1A2 = biological target: T4, Cytochrome P450 1A2 (Homo sapiens, UniProt P05177); test: Inhibition of CYP1A2; assay type: ADME
T4 sequence (P05177 whole entry): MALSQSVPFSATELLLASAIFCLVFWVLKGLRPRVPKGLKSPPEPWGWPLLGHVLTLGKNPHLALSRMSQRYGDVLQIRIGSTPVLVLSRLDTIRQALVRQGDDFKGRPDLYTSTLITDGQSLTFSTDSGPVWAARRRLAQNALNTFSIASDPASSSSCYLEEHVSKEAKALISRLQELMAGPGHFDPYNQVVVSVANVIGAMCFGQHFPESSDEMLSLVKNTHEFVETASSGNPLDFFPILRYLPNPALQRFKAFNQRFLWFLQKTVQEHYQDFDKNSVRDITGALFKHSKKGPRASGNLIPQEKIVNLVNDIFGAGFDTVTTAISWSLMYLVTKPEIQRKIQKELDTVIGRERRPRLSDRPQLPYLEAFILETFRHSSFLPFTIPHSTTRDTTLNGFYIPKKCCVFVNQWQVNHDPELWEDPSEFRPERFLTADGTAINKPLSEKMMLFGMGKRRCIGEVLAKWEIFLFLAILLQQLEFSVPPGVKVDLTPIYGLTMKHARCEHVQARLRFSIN

Cytochrome P450 2C19 = Cytochrome P450 2C19 (Homo sapiens, UniProt P33261); test: Inhibition of CYP2C19; assay type: ADME
Cytochrome P450 2C8 = biological target: T5, Cytochrome P450 2C8 (Homo sapiens, UniProt P10632); test: Inhibition of CYP2C8; assay type: ADME
T5 sequence (P10632 whole entry): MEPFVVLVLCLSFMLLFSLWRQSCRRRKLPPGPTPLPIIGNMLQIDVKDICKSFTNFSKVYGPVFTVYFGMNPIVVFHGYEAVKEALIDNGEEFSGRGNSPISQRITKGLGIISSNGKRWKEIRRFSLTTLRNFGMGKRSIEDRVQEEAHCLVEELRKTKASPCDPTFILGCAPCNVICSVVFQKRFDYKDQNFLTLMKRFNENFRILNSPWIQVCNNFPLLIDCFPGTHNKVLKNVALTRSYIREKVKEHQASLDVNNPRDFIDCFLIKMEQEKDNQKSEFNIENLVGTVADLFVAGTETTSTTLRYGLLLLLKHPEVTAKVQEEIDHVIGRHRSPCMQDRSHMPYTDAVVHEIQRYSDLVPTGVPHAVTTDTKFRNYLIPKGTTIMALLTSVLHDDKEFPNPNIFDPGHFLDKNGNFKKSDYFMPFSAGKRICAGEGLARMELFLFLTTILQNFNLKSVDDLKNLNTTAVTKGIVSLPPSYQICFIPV

Cytochrome P450 2C9 = Cytochrome P450 2C9 (Homo sapiens, UniProt P11712); test: Inhibition of CYP2C9; assay type: ADME
Cytochrome P450 2D6 = Cytochrome P450 2D6 (Homo sapiens, UniProt P10635); test: Inhibition of CYP2D6; assay type: ADME
Cytochrome P450 3A4 = Cytochrome P450 3A4 (Homo sapiens, UniProt P08684); test: Inhibition of CYP3A4; assay type: ADME
[29] = Intrinsic clearance in human liver microsomes; assay type: ADME, Microsome; settings: read-out: CLH
[30] = biological target: Aldo-keto reductase family 1 member B1 (Homo sapiens, UniProt P15121); test: Inhibition of aldose reductase
[31] = Half life in human plasma; assay type: ADME, cell-free
[32] = Drug degradation at pH 7.4 after 24 hrs; assay type: physicochemical; settings: buffer, read-out: Drug degradation
[33] = Stability assessed as drug degradation by measuring 2,2'-(5-chloro-3-(2-fluorobenzylcarbamoyl)-2-oxoindoline-1,3-diyl)diacetic acid formation at pH > 6 after 24 hrs; assay type: physicochemical
[34] = Stability assessed as drug degradation by measuring 2-(5-chloro-3-(2-(2-fluorobenzylamino)-2-oxoethyl)-2-oxoindolin-1-yl)acetic acid formation at pH > 6 after 24 hrs; assay type: physicochemical

Cytochrome P450 3A4, sequence (P08684 whole entry): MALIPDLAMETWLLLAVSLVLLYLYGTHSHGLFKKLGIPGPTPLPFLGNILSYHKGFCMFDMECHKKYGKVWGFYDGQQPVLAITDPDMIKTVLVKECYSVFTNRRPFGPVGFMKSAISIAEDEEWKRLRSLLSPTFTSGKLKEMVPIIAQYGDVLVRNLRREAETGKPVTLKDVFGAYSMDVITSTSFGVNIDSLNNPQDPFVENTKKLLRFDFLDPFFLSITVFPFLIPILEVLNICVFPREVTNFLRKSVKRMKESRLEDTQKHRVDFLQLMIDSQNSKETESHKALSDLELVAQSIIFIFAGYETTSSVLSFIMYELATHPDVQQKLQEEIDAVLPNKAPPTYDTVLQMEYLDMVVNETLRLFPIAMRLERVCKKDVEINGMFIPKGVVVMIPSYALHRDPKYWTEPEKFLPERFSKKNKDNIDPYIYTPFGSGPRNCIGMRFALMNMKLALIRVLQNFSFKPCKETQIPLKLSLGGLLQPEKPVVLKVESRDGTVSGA
Prostaglandin E2 receptor EP2 subtype (Homo sapiens), sequence (P43116 whole entry): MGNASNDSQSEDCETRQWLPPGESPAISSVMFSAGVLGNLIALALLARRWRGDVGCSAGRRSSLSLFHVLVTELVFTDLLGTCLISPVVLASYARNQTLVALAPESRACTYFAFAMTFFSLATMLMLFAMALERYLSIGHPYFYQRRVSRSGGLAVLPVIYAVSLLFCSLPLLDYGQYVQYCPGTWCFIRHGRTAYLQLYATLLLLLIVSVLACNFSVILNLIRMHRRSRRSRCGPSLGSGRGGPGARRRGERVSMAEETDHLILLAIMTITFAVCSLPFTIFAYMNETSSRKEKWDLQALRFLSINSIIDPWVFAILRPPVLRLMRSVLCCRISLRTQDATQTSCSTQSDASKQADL
Cytochrome P450 2C9, sequence (P11712 whole entry): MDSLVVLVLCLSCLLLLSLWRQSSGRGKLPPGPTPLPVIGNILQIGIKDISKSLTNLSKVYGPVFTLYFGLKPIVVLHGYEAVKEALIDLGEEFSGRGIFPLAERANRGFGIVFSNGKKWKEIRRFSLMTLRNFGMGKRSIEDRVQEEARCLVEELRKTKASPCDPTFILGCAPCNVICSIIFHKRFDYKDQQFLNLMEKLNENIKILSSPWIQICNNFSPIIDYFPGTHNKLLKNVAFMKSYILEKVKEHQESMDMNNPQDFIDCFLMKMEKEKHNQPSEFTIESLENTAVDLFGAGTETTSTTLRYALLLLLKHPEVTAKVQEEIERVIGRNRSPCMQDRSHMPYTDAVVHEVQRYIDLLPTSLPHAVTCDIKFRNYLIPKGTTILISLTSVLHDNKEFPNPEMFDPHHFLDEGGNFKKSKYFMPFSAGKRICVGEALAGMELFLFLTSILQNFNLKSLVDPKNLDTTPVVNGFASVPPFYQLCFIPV
Voltage-gated inwardly rectifying potassium channel KCNH2, sequence (Q12809 whole entry): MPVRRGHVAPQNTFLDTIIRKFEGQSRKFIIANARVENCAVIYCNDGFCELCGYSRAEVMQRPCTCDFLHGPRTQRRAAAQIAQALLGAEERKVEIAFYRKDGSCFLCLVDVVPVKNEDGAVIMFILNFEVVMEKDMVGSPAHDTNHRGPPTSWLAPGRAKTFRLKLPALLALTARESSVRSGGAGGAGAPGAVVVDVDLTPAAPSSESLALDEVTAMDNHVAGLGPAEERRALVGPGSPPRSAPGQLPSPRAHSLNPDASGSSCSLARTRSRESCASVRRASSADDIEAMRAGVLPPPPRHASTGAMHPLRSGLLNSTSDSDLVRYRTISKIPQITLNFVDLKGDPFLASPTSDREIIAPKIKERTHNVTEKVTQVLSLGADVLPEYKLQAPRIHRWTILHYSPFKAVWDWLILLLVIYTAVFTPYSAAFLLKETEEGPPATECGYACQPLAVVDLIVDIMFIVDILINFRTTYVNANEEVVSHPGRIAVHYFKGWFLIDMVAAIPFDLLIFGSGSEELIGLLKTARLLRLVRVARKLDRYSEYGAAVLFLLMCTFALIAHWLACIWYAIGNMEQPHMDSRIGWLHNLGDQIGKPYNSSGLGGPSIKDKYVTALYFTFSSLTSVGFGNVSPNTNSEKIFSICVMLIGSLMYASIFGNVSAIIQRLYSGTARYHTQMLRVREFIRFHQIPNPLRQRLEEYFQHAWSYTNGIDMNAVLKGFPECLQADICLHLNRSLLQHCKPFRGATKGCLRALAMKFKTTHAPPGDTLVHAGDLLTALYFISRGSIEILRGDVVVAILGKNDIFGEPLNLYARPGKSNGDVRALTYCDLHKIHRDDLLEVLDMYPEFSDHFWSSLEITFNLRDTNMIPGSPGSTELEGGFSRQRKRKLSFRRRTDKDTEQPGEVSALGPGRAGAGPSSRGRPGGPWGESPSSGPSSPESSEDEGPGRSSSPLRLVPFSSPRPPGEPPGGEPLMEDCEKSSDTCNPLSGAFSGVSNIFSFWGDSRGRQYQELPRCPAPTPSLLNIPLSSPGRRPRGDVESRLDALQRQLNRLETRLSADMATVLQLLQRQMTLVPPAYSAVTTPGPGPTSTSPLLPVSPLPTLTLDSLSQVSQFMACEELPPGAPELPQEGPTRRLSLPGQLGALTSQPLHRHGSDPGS
Cytochrome P450 2D6, sequence (P10635 whole entry): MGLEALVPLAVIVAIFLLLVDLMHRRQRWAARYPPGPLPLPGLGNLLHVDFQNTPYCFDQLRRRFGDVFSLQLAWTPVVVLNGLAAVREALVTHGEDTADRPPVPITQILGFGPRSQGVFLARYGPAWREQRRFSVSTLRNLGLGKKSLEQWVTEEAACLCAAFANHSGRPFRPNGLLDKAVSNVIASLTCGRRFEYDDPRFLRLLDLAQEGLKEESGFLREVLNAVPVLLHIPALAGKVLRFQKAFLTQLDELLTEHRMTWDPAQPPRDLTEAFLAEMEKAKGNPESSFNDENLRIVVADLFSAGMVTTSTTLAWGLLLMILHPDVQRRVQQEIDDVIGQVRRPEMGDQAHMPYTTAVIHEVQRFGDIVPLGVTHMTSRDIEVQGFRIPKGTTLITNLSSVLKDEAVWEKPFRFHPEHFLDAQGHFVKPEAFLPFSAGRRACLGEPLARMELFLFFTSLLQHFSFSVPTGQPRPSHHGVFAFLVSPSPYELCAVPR
Cytochrome P450 2C19, sequence (P33261 whole entry): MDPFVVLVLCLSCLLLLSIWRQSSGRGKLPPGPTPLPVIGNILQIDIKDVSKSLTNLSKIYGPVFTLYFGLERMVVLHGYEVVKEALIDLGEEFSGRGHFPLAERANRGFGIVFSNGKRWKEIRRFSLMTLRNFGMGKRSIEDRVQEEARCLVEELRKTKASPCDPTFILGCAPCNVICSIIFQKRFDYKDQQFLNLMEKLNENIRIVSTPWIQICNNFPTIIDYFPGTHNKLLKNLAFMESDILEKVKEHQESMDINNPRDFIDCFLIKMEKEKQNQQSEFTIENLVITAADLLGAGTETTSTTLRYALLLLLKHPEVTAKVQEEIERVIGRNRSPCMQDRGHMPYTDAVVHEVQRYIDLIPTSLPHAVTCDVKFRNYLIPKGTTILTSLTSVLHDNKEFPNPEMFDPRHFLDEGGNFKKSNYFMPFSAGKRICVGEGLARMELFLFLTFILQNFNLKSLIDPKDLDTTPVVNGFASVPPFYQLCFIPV

Compound: O=C(O)CN1C(=O)[C@@]2(NC(=O)N(Cc3cc(Cl)ccc3F)C2=O)c2cc(Cl)ccc21
pKi [1]: 7.82
fraction unbound [2]: 0.023
fraction unbound [3]: 0.03
fraction unbound [4]: 0.063
Papp [5]: 0.2 ×10⁻⁶ cm/s
clearance [6]: 2.5 mL/min/kg
CLH (Liver microsomes): < 1 µg/mL/h
CLH (Hepatocyte [7]): 2 µg/mL/h
bioavailability [8]: 6%
bioavailability [9]: 9%
bioavailability [10]: 7%
bioavailability [11]: 10%
bioavailability [12]: 71%
solubility [13]: 10 µg/mL (≈ 22.1 µM)
bioavailability [14]: 90%
degraded at 24 h [15]: < 5%
degraded at 24 h [16]: 45%
metabolised at 24 h [17]: < 15%
bioavailability [18]: 11%
clearance [19]: 13.3 mL/min/kg
AUC [20]: 580 ng·h/mL
solubility [21]: 1500 µg/mL (≈ 3320 µM)

Compound: COc1c(C)cnc(CN2C(=O)N(C)C3(C2=O)C(=O)N(CC(=O)O)c2ccc(Cl)cc23)c1C (stereo not given)
pKi [1]: 6.55

Compound: CN1C(=O)N(Cc2cc(Cl)ccc2F)C(=O)[C@]12C(=O)N(CC(=O)O)c1ccc(Cl)cc12
pKi [1]: 7.46
fraction unbound [2]: 0.02
fraction unbound [3]: 0.019
fraction unbound [4]: 0.05
Papp [5]: 0.6 ×10⁻⁶ cm/s
bioavailability [8]: 37%
bioavailability [9]: 39%
microsomal CLint [22]: < 10 µL/min/mg
inhibition in vivo at 30 mg/kg (Mus musculus): 67%
inhibition [23]: 32%
inhibition [24]: 34%
inhibition [25]: < 30%
inhibition [26]: < 30%
inhibition (INH) [27]: Not Active
Activity (Hepatocyte [28]): Non-toxic
Activity (HepG2): Non-toxic
pIC50 (Cytochrome P450 1A2): < 5.00
pIC50 (Cytochrome P450 2C19): < 5.00
pIC50 (Cytochrome P450 2C8): < 5.00
pIC50 (Cytochrome P450 2C9): < 5.00
pIC50 (Cytochrome P450 2D6): < 5.00
pIC50 (Cytochrome P450 3A4): < 5.00
microsomal CLint [29]: < 10 µL/min/mg
pIC50 [30]: 6.82
clearance [19]: 13.3 mL/min/kg
AUC [20]: 2400 ng·h/mL

Compound: O=C(O)CN1C(=O)C2(NC(=O)N(Cc3ccccc3F)C2=O)c2cc(Cl)ccc21 (stereo not given)
pKi [1]: 6.41

Compound: CN1C(=O)N(Cc2cn(-c3ccccc3)nc2-c2ccccc2)C(=O)C12C(=O)N(CC(=O)O)c1ccc(Cl)cc12 (stereo not given)
pKi [1]: 7.02

Compound: CCCN1C(=O)N(Cc2cc(Cl)ccc2F)C(=O)[C@]12C(=O)N(CC(=O)O)c1ccc(Cl)cc12
pKi [1]: 6.96

The remaining lines, values ahead:

pKi [1]: 6.96
Compound: Cc1onc(-c2ccccc2)c1CN1C(=O)N(C)C2(C1=O)C(=O)N(CC(=O)O)c1ccc(Cl)cc12 (stereo not given)

Papp [5]: 26 ×10⁻⁶ cm/s
half-life [31]: 1 h
Compound: O=C(O)CN1C(=O)[C@@]2(CC(=O)N(Cc3cc(Cl)ccc3F)C2=O)c2cc(Cl)ccc21

degraded at 24 h [32]: 25%
degraded at 24 h [15]: 50%
half-life [31]: 1 h
Stability [33]: Unstable
Stability [34]: Unstable
Compound: O=C(O)CN1C(=O)[C@@]2(CC(=O)N(Cc3ccccc3F)C2=O)c2cc(Cl)ccc21
